According to PubChem BioAssay (NCI):
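How tested: cells in 96-well plates exposed to compound for 48 hours at five concentrations. TGI is the concentration that stops growth completely.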

How the values were obtained:
Experiment in all cases: NCI tumour cell line growth inhibition, 48 h
786-0 renal = tested on: 786-0 renal
A498 renal = tested on: A498 renal
A549 NSCLC = tested on: A549 NSCLC
ACHN renal = tested on: ACHN renal
BT-549 breast = tested on: BT-549 breast
CAKI-1 renal = tested on: CAKI-1 renal
CCRF-CEM leukemia = tested on: CCRF-CEM leukemia
COLO 205 colon = tested on: COLO 205 colon
DU-145 prostate = tested on: DU-145 prostate
EKVX NSCLC = tested on: EKVX NSCLC
HCC-2998 colon = tested on: HCC-2998 colon
HCT-116 colon = tested on: HCT-116 colon
HCT-15 colon = tested on: HCT-15 colon
HL-60(TB) leukemia = tested on: HL-60(TB) leukemia
HOP-62 NSCLC = tested on: HOP-62 NSCLC
HOP-92 NSCLC = tested on: HOP-92 NSCLC
HS 578T breast = tested on: HS 578T breast
HT29 colon = tested on: HT29 colon
IGROV1 ovarian = tested on: IGROV1 ovarian
K-562 leukemia = tested on: K-562 leukemia
KM12 colon = tested on: KM12 colon
LOX IMVI melanoma = tested on: LOX IMVI melanoma
M14 melanoma = tested on: M14 melanoma
MALME-3M melanoma = tested on: MALME-3M melanoma
MCF7 breast = tested on: MCF7 breast
MDA-MB-231 breast = tested on: MDA-MB-231 breast
MDA-MB-435 = tested on: MDA-MB-435
MDA-N = tested on: MDA-N
MOLT-4 leukemia = tested on: MOLT-4 leukemia
NCI-H226 lung = tested on: NCI-H226 lung
NCI-H23 lung = tested on: NCI-H23 lung
NCI-H460 lung = tested on: NCI-H460 lung
NCI-H522 lung = tested on: NCI-H522 lung
NCI/ADR-RES ovarian = tested on: NCI/ADR-RES ovarian
OVCAR-3 ovarian = tested on: OVCAR-3 ovarian
OVCAR-4 ovarian = tested on: OVCAR-4 ovarian
OVCAR-5 ovarian = tested on: OVCAR-5 ovarian
OVCAR-8 ovarian = tested on: OVCAR-8 ovarian
PC-3 prostate = tested on: PC-3 prostate
RPMI-8226 leukemia = tested on: RPMI-8226 leukemia
RXF 393 renal = tested on: RXF 393 renal
SF-268 CNS = tested on: SF-268 CNS
SF-295 CNS = tested on: SF-295 CNS
SF-539 CNS = tested on: SF-539 CNS
SK-MEL-2 melanoma = tested on: SK-MEL-2 melanoma
SK-MEL-28 melanoma = tested on: SK-MEL-28 melanoma
SK-MEL-5 melanoma = tested on: SK-MEL-5 melanoma
SK-OV-3 ovarian = tested on: SK-OV-3 ovarian
SN12C renal = tested on: SN12C renal
SNB-19 CNS = tested on: SNB-19 CNS
SNB-75 CNS = tested on: SNB-75 CNS
SR leukemia = tested on: SR leukemia
SW-620 colon = tested on: SW-620 colon
T-47D breast = tested on: T-47D breast
TK-10 renal = tested on: TK-10 renal
U251 CNS = tested on: U251 CNS
UACC-257 melanoma = tested on: UACC-257 melanoma
UACC-62 melanoma = tested on: UACC-62 melanoma
UO-31 renal = tested on: UO-31 renal

c1ccc2c(c1)CN1CCCC1CN2 (stereo not drawn)
TGI (786-0 renal): > 100 µM | TGI (A498 renal): > 100 µM | TGI (A549 NSCLC): > 100 µM | TGI (ACHN renal): > 100 µM | TGI (BT-549 breast): > 100 µM | TGI (CAKI-1 renal): > 100 µM | TGI (CCRF-CEM leukemia): > 100 µM | TGI (COLO 205 colon): > 100 µM | TGI (DU-145 prostate): > 100 µM | TGI (EKVX NSCLC): > 100 µM | TGI (HCC-2998 colon): > 100 µM | TGI (HCT-116 colon): > 100 µM | TGI (HCT-15 colon): > 100 µM | TGI (HL-60(TB) leukemia): > 100 µM | TGI (HOP-62 NSCLC): > 100 µM | TGI (HOP-92 NSCLC): > 100 µM | TGI (HS 578T breast): > 100 µM | TGI (HT29 colon): > 100 µM | TGI (IGROV1 ovarian): > 100 µM | TGI (K-562 leukemia): > 100 µM | TGI (KM12 colon): > 100 µM | TGI (LOX IMVI melanoma): > 100 µM | TGI (M14 melanoma): > 100 µM | TGI (MALME-3M melanoma): > 100 µM | TGI (MCF7 breast): > 100 µM | TGI (MDA-MB-231 breast): > 100 µM | TGI (MDA-MB-435): > 100 µM | TGI (MDA-N): > 100 µM | TGI (MOLT-4 leukemia): > 100 µM | TGI (NCI-H226 lung): > 100 µM | TGI (NCI-H23 lung): > 100 µM | TGI (NCI-H460 lung): > 100 µM | TGI (NCI-H522 lung): > 100 µM | TGI (NCI/ADR-RES ovarian): > 100 µM | TGI (OVCAR-3 ovarian): > 100 µM | TGI (OVCAR-4 ovarian): > 100 µM | TGI (OVCAR-5 ovarian): > 100 µM | TGI (OVCAR-8 ovarian): > 100 µM | TGI (PC-3 prostate): > 100 µM | TGI (RPMI-8226 leukemia): > 100 µM | TGI (RXF 393 renal): > 100 µM | TGI (SF-268 CNS): > 100 µM | TGI (SF-295 CNS): > 100 µM | TGI (SF-539 CNS): > 100 µM | TGI (SK-MEL-2 melanoma): > 100 µM | TGI (SK-MEL-28 melanoma): > 100 µM | TGI (SK-MEL-5 melanoma): > 100 µM | TGI (SK-OV-3 ovarian): > 100 µM | TGI (SN12C renal): > 100 µM | TGI (SNB-19 CNS): > 100 µM | TGI (SNB-75 CNS): > 100 µM | TGI (SR leukemia): > 100 µM | TGI (SW-620 colon): > 100 µM | TGI (T-47D breast): > 100 µM | TGI (TK-10 renal): > 100 µM | TGI (U251 CNS): > 100 µM | TGI (UACC-257 melanoma): > 100 µM | TGI (UACC-62 melanoma): > 100 µM | TGI (UO-31 renal): > 100 µM

CCc1nc(N)nc(N)c1-c1ccc2c(c1)nnn2CCc1ccccc1
TGI (786-0 renal): 64.4 µM | TGI (A498 renal): > 79 µM | TGI (A549 NSCLC): > 100 µM | TGI (ACHN renal): > 70.1 µM | TGI (BT-549 breast): > 69 µM | TGI (CAKI-1 renal): > 100 µM | TGI (CCRF-CEM leukemia): > 69.9 µM | TGI (COLO 205 colon): 42 µM | TGI (DU-145 prostate): > 65.2 µM | TGI (EKVX NSCLC): > 75.8 µM | TGI (HCC-2998 colon): 51.4 µM | TGI (HCT-116 colon): > 61.1 µM | TGI (HCT-15 colon): > 63.2 µM | TGI (HL-60(TB) leukemia): 35.3 µM | TGI (HOP-62 NSCLC): > 69.9 µM | TGI (HOP-92 NSCLC): > 79.6 µM | TGI (HS 578T breast): > 85 µM | TGI (HT29 colon): 56.1 µM | TGI (IGROV1 ovarian): > 70.3 µM | TGI (K-562 leukemia): > 51.1 µM | TGI (KM12 colon): > 64.1 µM | TGI (LOX IMVI melanoma): > 65 µM | TGI (M14 melanoma): > 65.9 µM | TGI (MALME-3M melanoma): 49.5 µM | TGI (MCF7 breast): > 70 µM | TGI (MDA-MB-231 breast): > 72.4 µM | TGI (MDA-MB-435): > 68.7 µM | TGI (MDA-N): > 68.3 µM | TGI (MOLT-4 leukemia): 50.2 µM | TGI (NCI-H226 lung): > 71.8 µM | TGI (NCI-H23 lung): > 64.9 µM | TGI (NCI-H460 lung): 51.2 µM | TGI (NCI-H522 lung): 33.9 µM | TGI (NCI/ADR-RES ovarian): 68.8 µM | TGI (OVCAR-3 ovarian): > 70.1 µM | TGI (OVCAR-4 ovarian): > 100 µM | TGI (OVCAR-5 ovarian): > 82.5 µM | TGI (OVCAR-8 ovarian): > 64.9 µM | TGI (PC-3 prostate): > 64.7 µM | TGI (RPMI-8226 leukemia): 51.8 µM | TGI (RXF 393 renal): > 73.8 µM | TGI (SF-268 CNS): > 64.2 µM | TGI (SF-295 CNS): 57.1 µM | TGI (SF-539 CNS): > 68.9 µM | TGI (SK-MEL-2 melanoma): 61.9 µM | TGI (SK-MEL-28 melanoma): > 71.5 µM | TGI (SK-MEL-5 melanoma): 32.2 µM | TGI (SK-OV-3 ovarian): > 75.2 µM | TGI (SN12C renal): > 73.5 µM | TGI (SNB-19 CNS): 86.4 µM | TGI (SNB-75 CNS): 64.1 µM | TGI (SR leukemia): 49.5 µM | TGI (SW-620 colon): > 66.5 µM | TGI (T-47D breast): 64.5 µM | TGI (TK-10 renal): > 83.7 µM | TGI (U251 CNS): > 70.5 µM | TGI (UACC-257 melanoma): > 68.8 µM | TGI (UACC-62 melanoma): > 65.7 µM | TGI (UO-31 renal): > 60.6 µM
